From patent publication US10882860B2, “Treatment of osteoarthritis” (Samumed, LLC, priority 2015, dated 2021)

What was measured:
[1] = Phase 1 clinical study: pharmacokinetics; type: in vivo; details: human; cohorts 1, 2, and 3 (0.03, 0.07, 0.23 mg); 0, 4, 24 hours, Weeks 4 and 12; BQL
From the text: The study was a first-in-human, multicenter, 24-week, placebo-controlled, single-dose, dose-escalation safety study of a Wnt pathway inhibitor in subjects suffering from moderate to severe symptomatic knee OA. The sample size was 20 subjects (randomized 4:1, 16 active: 4 placebo) per dosing cohort. Inclusion criteria included: Age, 50-75 years; Western Ontario and McMaster Universities Arthritis Index (WOMAC) Total score, 36-72 (out of 96); Kellgren-Lawrence grade, 2 or 3; and a willingness to omit pain medication for 24 hours prior to pain assessments. Exclusion criteria included: BMI>40; and treatment with IA steroids within 2 months or HA derivatives within 6 months prior to injection. A full list of the inclusion and exclusion criteria for this study can be found on clinicaltrials.gov (NCT02095548).
The dosing sequence included suspension compositions of either 0.03 mg, 0.07 mg, or 0.23 mg of the compound of Formula (I) (Form 1) per 2 mL injection in a vehicle containing 0.5% carboxymethylcellulose sodium and 0.05% polysorbate 80 in pH 7.4 phosphate buffered saline. […]
PK samples were collected at 0, 4, and 24 hours post dose, and at Weeks 4 and 12. All subjects in cohorts 1, 2, and 3 had levels below limits of quantitation (BQL<0.100 ng/mL) at all recorded time points.

[2] = test system: rats that underwent ACLT combined with medial meniscectomy (MMx); test: Efficacy of suspension in rat ACLT + pMMx model (OARSI score); type: in vivo; details: for OARSI score: vehicle 4.43
Method: The efficacy of the compound of Formula (I) on increasing cartilage thickness was determined in rats that underwent anterior cruciate ligament transection (ACLT) combined with medial meniscectomy (MMx).
Female rats (10-12 weeks old) were subjected to surgical severing of the anterior cruciate, medial collateral and medial meniscotibial ligaments (ACLT+pMMx). One-week post-surgery, after cartilage was allowed to degenerate, the rats were injected intra-articular (IA) with a single dose of a suspension of the compound of Formula (I) (0.1 μg or 0.3 μg or 1 μg). On Days 30, 60, and 90 after injection, joint cartilage, bone and plasma was isolated. Compound from these tissues was extracted using acetonitrile-methanol (70:30) and analyzed for concentrations using LC-MS.
13 weeks after the surgery (12 weeks post-IA injection), knees were isolated, fixed in 10% formalin, decalcified, embedded in paraffin, and sectioned. Sections were stained with Safranin O-Fast Green and histologically evaluated by two blinded observers based on OARSI scoring system (Pritzker et al. (2006) Osteoarthr. Cartil. 14:13-29). The OARSI score measures cartilage matrix loss, fissures, subchondral bone remodeling and bone cyst formation.

[3] = test system: Human MSCs; test: Alcian Blue, Safranin O, and Type II collagen staining; type: cell-based; details: 14 or 21 days; compared to control
Method: Human MSCs were plated in 96-well plates in chondrogenic induction medium (Lonza; DMEM, dexamethasone, ascorbate, insulin-transferrin-selenium [ITS supplement], gentamycin-amphotericin [GA-1000], sodium pyruvate, proline and L-glutamine) and treated with the compound of Formula (I) in DMSO or TGFβ3 (20 μg/mL) as a positive control. Cells were incubated at 37° C., 5% CO2 for either 14 or 21 days, with media changes every 5 days. The cells were fixed using 4% formaldehyde (Electron Microscopy Sciences). For Alcian Blue staining, cells were incubated with 10 mg/mL Alcian Blue (Sigma-Aldrich) in 3% acetic acid (Sigma-Aldrich), pH 2.5 for 30 minutes, washed with PBS, and imaged using a light microscope (Life Technologies) at 10× magnification. For Safranin O staining, cells were incubated with 0.1% Safranin O (Sigma-Aldrich) in distilled water for 5 minutes, washed with PBS and imaged using a light microscope (Life Technologies) at 10× magnification. For Type II collagen staining, cells were incubated with primary antibody in 3% BSA, 0.3% Triton X-100 in PBS with overnight incubation at […]. Cells were then washed and incubated with fluorophore-linked secondary antibody and DAPI (Life Technologies) for 1 hr at room temperature. Cells were washed and imaged using EVOS FL Microscope (Life Technologies).

[4] = type: in vivo, beagle dogs; details: dog
Method: The local toxicology of Form 1 of the compound of Formula (I) in dogs was studied. The compound of Formula (I) (Form 1) was administered via single or multiple (9 times) intra-articular (IA) injections as a suspension composition in beagle dogs to evaluate local toxicity.
After IA injection, the right stifle joint was histologically evaluated for inflammation, cartilage health, bone density, etc. Toxicology was evaluated immediately after a single or multiple (3 or 9 once-monthly) IA injections.

For `CC(C)CC(=O)Nc1cncc(-c2ccc3[nH]nc(-c4nc5c(-c6cccc(F)c6)cncc5[nH]4)c3c2)c1` [compound of Formula (I)], the “plasma level (PK samples)” value [1] was under 0.100 ng/mL, the OARSI score ([2]; rat ACLT+pMMx, single IA 0.1 μg suspension, 12 weeks post-injection) was 3.13 and the OARSI score ([2]; rat ACLT+pMMx, single IA 0.3 μg suspension, 12 weeks post-injection) was 2.15. For the same molecule, the “total OARSI score (against vehicle)” value ([2]; rat ACLT+pMMx, 0.1, 0.3 or 1 μg, 12 weeks post-injection) was “dose-dependent reduction”, the “knee histology (Safranin O-Fast Green)” value ([2]; rat ACLT+pMMx, single IA injection, 12 weeks post-injection) was “Increased cartilage thickness, decreased fissures, and subchondral bone remodeling” and the “cartilage in safranin O-stained knee section vs control knee” value ([2]; rat, 0.3 μg, after 12 weeks, FIG. 23B) was “increased cartilage”. For the same molecule, the “chondrogenesis (Alcian Blue, Safranin O, Type II collagen staining)” value [3] was “increased amount of chondrogenesis”, the “finding at the injection site of high-dose animals (synovium and extra-articular tissues)” value ([4]; in vivo) was “local inflammatory response” and the “no observed adverse effect level (NOAEL)” value ([4]; in vivo) was 1.75 mg/knee. The “histopathological effects in the bone and cartilage” value ([4]; single IA injection 0.07, 1.75 and 35 mg) was “no adverse histopathological effects”.
